# Assay: Reduction of body weight with harmine in mice (intraperitoneal injection, 4 weeks)
# Type: in vivo
# Conditions: intraperitoneal in saline, 4 weeks (30 days), initial body weight 30 g
# Experimental: In order to determine the effect of harmine and harmine derivatives in reducing body weight, we administered harmine to mice and tracked their body weights for 4 weeks (30 days). Harmine was solublized in saline and administered via intraperitoneal injection. Animals were weighed weekly.
# Mice (6 per group) were divided into seven groups and given one of the following treatments: • 1. 5 mg harmine/kg body weight (Low) • 2. 10 mg harmine/kg body weight (Med) • 3. 20 mg harmine/kg body weight (High) • 4. Saline • 5. 3 mg/kg body weight (Positive control 2) • 6. 5 mg/kg body weight (Positive control low) • 7. 10 mg/kg body weight (Positive control high)
# Even at the low dose, the animals lost more than 5% of their body weight.
structure (smiles),measurement,setting,value
COc1ccc2c(c1)[nH]c1c(C)nccc12 [harmine],reduction in body weight,highest dose 20 mg harmine/kg body weight,6%
same,reduction in body weight,low dose 5 mg harmine/kg body weight,more than 5%
